From patent US20240091215A1, “TASQUINIMOD OR A PHARMACEUTICALLY ACCEPTABLE SALT THEREOF FOR USE IN THE TREATMENT OF MYELODYSPLASTIC SYNDROME” (ACTIVE BIOTECH AB, priority 2021, published 2024)

What was measured:
[1] = system: IL-1β, IL-18, Casp1 and PD-L1 mRNA in MDS MSCs; assay: RT-PCR mRNA expression of IL-1β, IL-18, caspase 1 and PD-L1 in MDS MSCs treated with S100A9 with or without tasquinimod; format: cell-based, human; conditions: 48 h
Protocol: FIG. 3 is a bar chart representing the mRNA expression levels of IL-1β, IL-18, Casp1 and PD-L1 by real-time PCR of MDS MSCs after 48 h treatment with tasquinimod only (TASQ), with S100A9 only (S100A9), or with both S100A9 and tasquinimod (S100A9+TASQ). Amplicons for IL-1β, IL-18, Casp1 and PD-L1 were normalized to endogenous GAPDH expression and the untreated MSCs were set to 1 (=control).
(§1) BM mononuclear cells were isolated by percoll gradient centrifugation and MSCs were grown as adherent monolayer in DMEM/10% FCS. Passages 2-5 were used for the experiments.
(§2) To mimic inflammatory conditions, in-vitro cultured MSCs were treated with recombinant S100A8, S100A9 or the S100A8/9 heterodimer (each 1.5 μg/ml) or TNF-α (10 ng/ml) in the presence or absence of tasquinimod (10 μM) for different time periods depending on the subsequent experiments. Hematopoietic stem and progenitor cells (HSPCs) for cocultures were isolated using CD34 antibody-conjugated magnetic beads, according to the manufacturer's instructions (Miltenyi Biotec) and were added in CellGro medium (CellGenix) containing stem cell factor (SCF), FLT3-L and IL-3 (10 ng/ml each).
(§3) RNA was isolated from MSC using RNeasy Mini Kit (Qiagen) and reverse transcribed into cDNA using RevertAid™ cDNA synthesis kit (Thermo Fisher) with oligo-dT primers. Relative target quantity was determined using the comparative CT (ΔΔCT) method. RT-PCR was performed using SYBR Green/ROX PCR master mix (Thermo) and target specific primers for caspasel, IL1β, IL18, PD-L1, PD-1 and GAPDH as housekeeping gene on a Taqman™ Fast 3500 cycler (Applied Biosystems). Amplicons were normalized to endogenous GAPDH control.

[2] = system: PD-L1; conditions: Oncoimmunology 2016, Vol. 5, No. 6, e1145333; cited from earlier work
[3] = system: PD-1; assay: PD-1 expression (RT-PCR) in MSC/HSPC co-cultures; format: cell-based, human; conditions: summary statement; PD-1 measured in co-cultured HSPCs
Protocol: as §2
as §3, with “RNA was isolated from MSC using RNeasy Mini Kit (Qiagen) and reverse transcribed into cDNA using RevertAid™ cDNA synthesis kit (Thermo Fisher) with oligo-dT primers.” left out

[4] = system: MDS MSCs; assay: MSC differentiation assays (adipogenic, osteogenic); format: cell-based, human
Protocol: Adipogenic and osteogenic differentiation capacity is an important functional feature of MSCs and often altered in MDS leading to changes in the bone metabolism. Therefore, the effect of tasquinimod on adipogenic and osteogenic differentiation was assayed as follows.
MSCs were seeded in 6-well plates (5×10^3 MSCs/cm^2), cultured to subconfluency for approximately 4 days in DMEM, and subjected to adipogenic (0.5 mM […], 1 μM dexamethasone, 100 μM indomethacin, 10 μM insulin) or osteogenic (0.1 μM dexamethasone, 0.2 mM ascorbate-2-phosphate, 10 mM β-glycerophosphate) differentiation. […] Differentiation was graded according to microscopic analysis as follows: 0=no differentiation; 1=25% of the culture wells contain differentiated cells; 2=50% of the culture wells contain differentiated cells; 3=75% of the culture wells contain differentiated cells; 4=100% of the culture wells contain differentiated cells. Osteogenesis was determined by van Kossa staining, and the catalytic activity of ALP was determined.

[5] = system: IRAK1, NF-κB-p65 and gasdermin in MDS MSCs; assay: Western blot of IRAK1, NF-κB-p65 and gasdermin in MDS MSCs treated with S100A9 with or without tasquinimod; format: cell-based, human; conditions: S100A9 1.5 μg/ml, tasquinimod 10 μM, 48 h
Protocol: GAPDH (38 kDa) served as reference protein. Lane 1=untreated control; lane 2=treated with S100A9; lane 3=treated with S100A9/tasquinimod.
as §1, §2
(§4) Whole cell lysates were prepared using RIPA lysis buffer containing proteinase inhibitors. Protein concentrations were determined using the BCA Protein Assay Kit. Equal protein amounts were separated by SDS-polyacrylamide gel electrophoresis and transferred to polyvinylidene fluoride membranes for detection of specific proteins using primary antibodies for IRAK1, NF-κB-p65, gasdermin and OXPHOS overnight at 4° C., following secondary antibodies HRP-conjugated goat anti-mouse IgG (Invitrogen) or donkey anti-rabbit IgG (GE Healthcare), respectively. The blots were incubated with ECL Plus Western Blotting reagent (Amersham) and the signals captured using a LAS3000 imaging system.

[6] = system: MDS MSC co-cultured with hematopoietic progenitor cells; assay: CFU assay with cells harvested after one week of MSC/HSPC co-culture; format: cell-based, human; conditions: colonies counted after 2 weeks
Excerpt: FIG. 6b is a bar chart showing the number of colonies/300 cells in CFU assays performed using MDS MSC cells cocultured with hematopoietic progenitor cells, harvested after one week of co-culture in the presence of S100A9 or in the presence of both S100A9 and tasquinimod or in the absence of both S100A9 and tasquinimod (“control”), with 300 cells being plated in enriched methylcellulose medium with recombinant cytokines (MethoCult™ H4435, STEMCELL Technologies). Colonies were counted after 2 weeks and classified under a microscope or with the STEMvision™ system (STEMCELL Technologies). FIG. 6c is a bar chart showing the number of colonies/300 cells in CFU assays performed using MDS MSC cells and hematopoietic progenitor cells, harvested after one week of co-culture in the presence (“TASQ”) or absence (“without”) of tasquinimod, with 300 cells being plated in enriched methylcellulose medium with recombinant cytokines (MethoCult™ H4435, STEMCELL Technologies). Colonies were counted after 2 weeks and classified under a microscope or with the STEMvision™ system (STEMCELL Technologies). […] Colonies were counted after 2 weeks and classified under a microscope or with the STEMvision™ system (STEMCELL Technologies).

[7] = system: IRAK1, NF-κB-p65 and gasdermin in MDS MSCs; assay: Western blot of IRAK1, NF-κB-p65 and gasdermin in MDS MSCs treated with TNF-α with or without tasquinimod; format: cell-based, human; conditions: MSC cultures, TNF-α 10 ng/ml, tasquinimod 10 μM, 48 h
Protocol: GAPDH (38 kDa) served as reference protein. Lane 1=treated with TNF-α; lane 2=treated with TNF-α and tasquinimod.
as §2, §4

[8] = system: MSCs; assay: CellROX Deep Red Flow Cytometry Assay of ROS levels; format: cell-based, human
Protocol: The inflammatory micromilieu of the myelodysplastic bone marrow leads to increased ROS levels which may cause aberrant cellular function. Therefore, the effect of tasquinimod on ROS levels in MSCs is assayed using the CellROX™ Deep Red Flow Cytometry Assay kit (Thermo Fisher) according to the manufacturer's instructions.

[9] = system: αSMA and NF-κB in MSCs; assay: Immunofluorescence staining and confocal microscopy of S100A9/tasquinimod treated MSCs; format: cell-based, human
Protocol: as §2
S100A9/tasquninimod treated MSCs were fixed with 4% paraformaldehyde. Cells were permeabilized using PBS containing 0.1% Triton™ X-100 (T-PBS), blocked with T-PBS containing 10% FCS and 1% HSA (IF-Buffer) and incubated over night at 4° C. with antibodies against αSMA, NFκB or PD-L1. Secondary antibodies polyclonal sheep-anti-rabbit-Cy3 or polyclonal goat-anti-mouse-Cy2 were incubated for 1 h at room temperature. Cell nuclei were counterstained with DAPI. Imaging analysis was performed by confocal microscopy (LSM800, Carl Zeiss) and ZEN software.

[10] = system: PD-L1 in healthy and CMML MSCs; assay: Western blot of PD-L1 in healthy and CMML MSCs; format: cell-based, human; conditions: 48 h; for PD-L1 expression in the absence of S100A9: tasquinimod alone
Protocol: Lane 1=untreated control; lane 2=treated with tasquinimod; lane 3=treated with S100A9; […] tasquinimod.
as §1, §2, §4

[11] = system: genetically modified mice (e.g. B6; 129-Trp53bp^tm1Jc/J and NUP98/HOXD13); assay: In vivo validation in genetically modified mice developing signs of MDS; conditions: MDS mouse models, blood counts weekly, bone marrow after 20 weeks
Protocol: The promising in vitro results are validated in vivo in different mouse models. In these models, genetically modified mice (e.g. B6; 129-Trp53bp^tm1Jc/J and NUP98/HOXD13) which develop typical signs of MDS such as anemia and cytopenia are treated with tasquinimod. Peripheral blood counts are recorded weekly and finally the bone marrow is analysed after 20 weeks.

[12] = system: MSCs; assay: Seahorse Metabolic Extracellular Flux Profiling (Cell Mito Stress Test); format: cell-based, human
Protocol: The impact of tasquinimod on cellular metabolism is investigated by using the Seahorse system (Agilent Technologies). MSCs are seeded in Seahorse 96-well plates. Cell Mito Stress Test (XF Cell Mito Stress Test Kit, Agilent Technologies) is performed following the standard protocol. Oxygen consumption rate (OCR) and Extracellular Acidification Rate (ECAR) are detected after injection of oligomycin ([…]), carbonyl cyanide-p-trifluoromethoxyphenylhydrazone (FCCP, […]), and the combination of rotenone and antimycin (Rot/AA, […]). OCR is measured with an XF96 analyzer and the Wave software (version 2.2.0).

[13] = system: MDS MSC co-cultured with hematopoietic progenitor cells; assay: CAF-C assay, MSC/HSPC co-culture with pre-treated stromal layers; format: cell-based, human; conditions: stromal layers pre-treated with S100A9 and tasquinimod, one to four weeks
Protocol: FIG. 6a is a bar chart showing quantification of CAF-C when co-culturing MDS MSC with hematopoietic progenitor cells, after one, two, three and four weeks without the presence of either S100A9 or tasquinimod (“without”), in the presence of tasquinimod (TASQ), in the presence of S100A9 (S100A9), and in the presence of both s100A9 and tasquinimod (S100A9+TASQ).
as §2
CAF-C assays were performed over four weeks using pre-treated healthy or MDS MSC layers. One thousand magnetically isolated CD34+ cells were added in StemMACS™ HSC-CFU complete medium (Miltenyi Biotec).

[14] = MDS MSCs, S100A9-induced increase, tasquinimod 10 μM
[15] = MSCs, induced by S100A9, tasquinimod 10 μM

COc1cccc2c1c(O)c(C(=O)N(C)c1ccc(C(F)(F)F)cc1)c(=O)n2C [tasquinimod, 4-hydroxy-5-methoxy-N,1-dimethyl-2-oxo-N-[4-(trifluoromethyl)phenyl]-1,2-dihydroquinoline-3-carboxamide]
mRNA expression of IL-1β [1, 14]: this increase was inhibited
mRNA expression of IL-18 [1, 14]: this increase was inhibited
mRNA expression of caspase 1 [1, 14]: this increase was inhibited
PD-L1 expression at the mRNA level [1, 15]: suppressed
expression of PD-L1, previously reported [2]: upregulate expression of PD-L1
PD-1 expression [3]: inhibition
decrease in number of adipocytes (Oil red O positive cells) ([4]; MDS MSCs, after 14 days of cultivation in differentiation medium): 25-50%
adipogenic differentiation ([4]; MSC differentiation assay): reducing
osteogenic differentiation ([4]; MSC differentiation assay): improving
expression of IRAK1 (Western blot) [5]: inhibited the expression
expression of NF-κB-p65 (Western blot) [5]: inhibited the expression
expression of gasdermin (Western blot) [5]: inhibited the expression
number of CFUs [6]: increased
expression of IRAK1 (Western blot) [7]: inhibited the expression
expression of NF-κB-p65 (Western blot) [7]: inhibited the expression
expression of gasdermin (Western blot) [7]: inhibited the expression
ROS levels in MSCs [8]: block elevated ROS levels
NF-kB (nuclear) expression in MSCs [9]: reduces
αSMA expression in MSCs [9]: reduces
PD-L1 expression in the absence of S100A9 ([10]; MSC from CMML MDS patients): downregulation of PD-L1
PD-L1 expression in the absence of S100A9 ([10]; MSC from healthy volunteers): downregulation of PD-L1
PD-L1 expression at the protein level [10, 15]: suppressed
restoration of functional hematopoiesis [11]: partly restore functional hematopoiesis
Spare Respiratory Capacity [12]: improved
cellular stress [12]: reduced cellular stress
number of CAF-Cs [13]: increased
